Assay results from ChEMBL document CHEMBL1201862, “PubChem BioAssay data set” (2004).
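Following 48 hours of exposure in 96-well plates, responses at five concentrations were used to interpolate endpoints linearly. Abbreviation: GI50, concentration required for 50% inhibition of growth.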 Activity calls are given as the source filed them. Rule as the data show it: active = GI50 up to about 1.1 µM and inactive = higher.

Legend:
Assay in all cases: DTP human tumour cell line panel, 48 h
A549 = test system: A549
CAKI-1 = test system: CAKI-1
CCRF-CEM = test system: CCRF-CEM
EKVX = test system: EKVX
HOP-92 = test system: HOP-92
LOX IMVI = test system: LOX IMVI
MCF7 = test system: MCF7
NCI-H522 = test system: NCI-H522
NCI/ADR-RES = test system: NCI/ADR-RES
OVCAR-5 = test system: OVCAR-5
RPMI-8226 = test system: RPMI-8226
SK-MEL-5 = test system: SK-MEL-5
SNB-19 = test system: SNB-19
SNB-75 = test system: SNB-75
SW-620 = test system: SW-620
UACC-257 = test system: UACC-257
HOP-62 = test system: HOP-62
M14 = test system: M14
TK-10 = test system: TK-10

Measured: GI50

CN(CCO)/N=N/c1n[nH]cc1C(N)=O
inactive: A549 > 100 µM | CAKI-1 > 100 µM | CCRF-CEM > 100 µM | EKVX > 100 µM | HOP-92 > 100 µM | LOX IMVI > 100 µM | MCF7 > 100 µM | NCI-H522 > 100 µM | NCI/ADR-RES > 100 µM | OVCAR-5 > 100 µM | RPMI-8226 > 100 µM | SK-MEL-5 > 100 µM | SNB-19 > 100 µM | SNB-75 > 100 µM | SW-620 > 100 µM | UACC-257 > 100 µM

C=CCONC(=O)c1ccc(Cl)cc1
inactive: A549 > 100 µM | CAKI-1 > 100 µM | CCRF-CEM > 100 µM | EKVX > 100 µM | HOP-62 > 100 µM | HOP-92 > 100 µM | LOX IMVI > 100 µM | M14 > 100 µM | NCI-H522 > 100 µM | OVCAR-5 > 100 µM | RPMI-8226 > 100 µM | SK-MEL-5 > 100 µM | SNB-19 > 100 µM | SNB-75 84.1 µM | SW-620 > 100 µM | TK-10 > 100 µM | UACC-257 > 100 µM

CCN(CC)c1ccc2c(c1)Nc1cc(=C(C#N)C#N)c3ccccc3c1=N2
inactive: A549 > 100 µM | CAKI-1 > 100 µM | EKVX > 100 µM | HOP-62 > 100 µM | HOP-92 > 100 µM | LOX IMVI 53.5 µM | M14 > 100 µM | NCI-H522 > 100 µM | OVCAR-5 > 100 µM | RPMI-8226 > 100 µM | SK-MEL-5 > 100 µM | SNB-19 > 100 µM | SNB-75 > 100 µM | SW-620 59 µM | TK-10 > 100 µM | UACC-257 > 100 µM

O=[N+]([O-])c1cccc2c1[nH]c1c(-c3ccccc3)nccc12
inactive: A549 2.67 µM | CCRF-CEM 1.68 µM | EKVX 3.21 µM | HOP-62 1.87 µM | LOX IMVI 2.73 µM | MCF7 2.33 µM | NCI/ADR-RES 1.63 µM | OVCAR-5 3.9 µM | RPMI-8226 1.46 µM | SK-MEL-5 1.53 µM | SNB-19 3.19 µM | SNB-75 2.4 µM | SW-620 3.41 µM | UACC-257 1.94 µM
active: HOP-92 0.622 µM | NCI-H522 0.849 µM

NS(=O)(=O)c1cc(S(N)(=O)=O)c(NC(=O)N(c2ccccc2)c2ccccc2)c(Cl)c1Cl
inactive: A549 31.8 µM | CAKI-1 21.4 µM | CCRF-CEM 1.98 µM | EKVX 19.1 µM | HOP-92 1.72 µM | LOX IMVI 12.5 µM | M14 15.7 µM | MCF7 35 µM | NCI-H522 13.2 µM | NCI/ADR-RES 19 µM | OVCAR-5 42.1 µM | RPMI-8226 15.3 µM | SK-MEL-5 14.1 µM | SNB-19 40.4 µM | SW-620 29.9 µM | TK-10 32.7 µM | UACC-257 10.4 µM

O=C(CCN1CCCC1)c1ccc(Oc2ccc(F)cc2)cc1
inactive: A549 > 100 µM | CAKI-1 16.3 µM | CCRF-CEM 26.5 µM | EKVX 93.3 µM | HOP-62 > 100 µM | HOP-92 15 µM | LOX IMVI 30.5 µM | M14 31 µM | MCF7 15.6 µM | NCI/ADR-RES > 100 µM | OVCAR-5 > 100 µM | SK-MEL-5 44.8 µM | SNB-19 > 100 µM | SNB-75 47.8 µM | SW-620 78.7 µM | TK-10 30.1 µM | UACC-257 43.1 µM

CCOC(=O)[C@H](Cc1ccc(O)cc1)/N=C1/[C@H]2CCC[C@]1(O)[C@@](C)([N+](=O)[O-])C2
inactive: A549 > 100 µM | CAKI-1 > 100 µM | CCRF-CEM > 100 µM | EKVX > 100 µM | HOP-92 > 100 µM | LOX IMVI > 100 µM | M14 > 100 µM | MCF7 > 100 µM | NCI-H522 63.7 µM | NCI/ADR-RES > 100 µM | OVCAR-5 > 100 µM | RPMI-8226 > 100 µM | SK-MEL-5 > 100 µM | SNB-19 > 100 µM | SW-620 > 100 µM | TK-10 > 100 µM | UACC-257 > 100 µM

O=C1C2CN(Cc3ccccc3)CC1CN(CC1CC1)C2
inactive: A549 > 100 µM | CAKI-1 > 100 µM | CCRF-CEM > 100 µM | EKVX > 100 µM | HOP-62 > 100 µM | HOP-92 > 100 µM | LOX IMVI > 100 µM | M14 > 100 µM | NCI-H522 > 100 µM | OVCAR-5 > 100 µM | RPMI-8226 > 100 µM | SK-MEL-5 > 100 µM | SNB-19 > 100 µM | SNB-75 > 100 µM | SW-620 > 100 µM | TK-10 > 100 µM | UACC-257 > 100 µM
